The target of test [1] is T1, human α2-GABAA receptor (BZD site, membrane protein of HEK293 cells) (Homo sapiens, UniProt P18507+P47869).
T1 construct: expressed in transfected cells
The test can be described thus: Radioligand competitive binding assay (3H-flunitrazepam) at the BZD site of the α2-GABAA receptor. Conditions: competition with 1 nM 3H-flunitrazepam; Ki calculated from IC50; read-out: α2 Ki. From the text:
(§1) α subunit, β subunit, and γ subunit are essential for the formation of a complete and functional GABAA receptor. In this example of the present disclosure, HEK293 cells stably expressing the human α1-GABAA receptor (α1-GABAAR) and α2-GABAA receptor (α2-GABAAR) were constructed and separately selected using the lipofection method (Felgner, P. L., et al. Proceedings of the National Academy of Sciences, 1987, 84: 7413-7417). The α1-GABAAR-HEK293 cell model simultaneously expressed the α1 subunit (for protein sequence, see GenBank accession No.: NM_000806.5), the […] (for protein sequence, see GenBank accession No.: NM_000814.5), and the […] (for protein sequence, see GenBank accession No.: NM_000816.3). The α2-GABAAR-HEK293 cell model simultaneously expressed the α2 subunit (for protein sequence, see GenBank accession No.: NM_000807.4), the β3 subunit (for protein sequence, see GenBank accession No.: NM_000814.5), and the γ2 subunit (for protein sequence, see GenBank accession No.: NM_000816.3).
(§2) The above cell lines were subcultured. The α2-GABAAR-HEK293 cells were expanded for testing the affinity of compounds to the benzodiazepine (BZD) site of the GABAA receptor. During the passage process, some of the α1-GABAAR-HEK293 cells and α2-GABAAR-HEK293 cells were suspended and plated on a slide pre-treated with Poly-D-Lysine for electrophysiological testing (method referenced from patent CN107344936A, paragraph 0586).
The affinity of the compounds for the α2-GABAA receptor was determined by competing for the binding of ^3H-flunitrazepam (isotope ^3H-labelled flunitrazepam) to the BZD site on the membrane protein of HEK293 cells stably expressing the human α2-GABAAR.
Membrane preparation: Cells were suspended in 50 mM Tris-HCl buffer (pH=7.4), homogenized 10 times for 20 seconds with a homogenizer on ice, and centrifuged at 1000 g for 10 minutes at 4° C. The supernatant was taken, and the above steps were repeated. The supernatant was centrifuged at 4° C. (33800 g; Thermo, rotor: A27-8×50) for 60 minutes. The precipitate was resuspended in Tris buffer (50 mM Tris-HCl, 10 mM MgCl2, 0.5 mM EDTA, and 10% glycerol). The protein content was determined (BCA (bicinchoninic acid) protein quantification assay based on copper ion reduction, with a BCA kit purchased from Pierce (Annoron (Beijing) Biotechnology Co., Ltd.)), and 1 mL aliquots were prepared and stored at −80° C.
Radioligand competitive binding assay: This assay was performed in a 200 μL system (96-well plate) containing 100 μL of cell membrane. The concentration of ^3H-flunitrazepam was 1 nM, and the concentrations of the test compounds were in the range of […]. Flumazenil was used as a control. 1 μL of 2 mM flumazenil (final […]) was added to each low signal control (low control, LC) well, and 1 μL of dimethyl sulfoxide was added to each high signal control (high control, HC) well. The final concentration of target membrane protein was […]. All sample stock solutions of test compounds were 10 mM dimethyl sulfoxide solutions. All the samples were diluted to a concentration of 0.2 mM with dimethyl sulfoxide, and then subjected to a 4-fold serial dilution for a total of 8 working concentration gradients. The 96-well plate was sealed with a sealing membrane and then incubated on a shaker at room temperature for 1 hour. Meanwhile, a GF/C filter plate was soaked in plate soaking buffer (0.3% PEI (polyethyleneimine, purchased from Sigma-Aldrich, model: P314), stored at 4° C.) for at least 0.5 hours. After the binding incubation was completed, the cells were harvested onto the GF/C filter plate using a cell harvester and washed four times with plate washing buffer (50 mM Tris-HCl, pH 7.4, stored at 4° C.). After drying in an oven at 50° C. for 1 hour, the dried GF/C filter plate was bottom-sealed. The residual radioactivity on the filter membrane was detected by liquid scintillation counting.

Test [2] deals with T2, human α1-GABAA receptor (α1-GABAAR-HEK293 cells) (Homo sapiens, UniProt P14867+P18507).
T2 construct: expressed in transfected cells
The test can be described thus: Whole-cell patch-clamp electrophysiology, positive allosteric modulatory activity on α1-GABAA receptor. The class given is cell-based. The following applies: read-out: α1-GABAA positive allosteric modulatory activity.
Source text: as §1, §2
(§3) The positive regulatory activity of the test drugs on the α1-GABAA receptor and the α2-GABAA receptor was detected by the electrophysiological method. The specific method was as follows:
(§4) Compound concentration setting: The final concentration of the compounds used for screening was 100 nM. For cell lines expressing the α1-GABAA receptor, the concentration of GABA was 0.05 to 0.07 μM (approximately EC2-4). For cell lines expressing the α2-GABAA receptor, the concentration of GABA was 0.10 to 0.11 μM (approximately EC7-8). Electrophysiological testing was performed using the whole-cell patch-clamp technique, which can refer to the method reported in the literature (Nickolls, S. A., et al. British Journal of Pharmacology, 2018, 175: 708-725). The composition of the extracellular solution (ECS) for electrophysiology was as follows: 150 mM NaCl, 5 mM KCl, 2.5 mM CaCl2, 1 mM MgCl2, 10 mM HEPES, and 10 mM glucose (pH 7.4). The formulation of the intracellular solution (ICS) for electrophysiology was as follows: 140 mM CsCl, 11 mM EGTA, 10 mM HEPES, 2 mM CaCl2, 1 mM MgCl2, 4 mM MgATP, and 2 mM TEA (pH 7.3). GABA (γ-aminobutyric acid) powder was prepared into a mother liquor with pure water, which was then diluted in ECS. The compound was first prepared into a 4 mM mother liquor with dimethyl sulfoxide, which was then gradually diluted in the corresponding concentration of GABA-ECS. The solutions were freshly prepared prior to electrophysiological testing.
(§5) Electrophysiological signal acquisition was performed using an EPC 10 amplifier and PatchMaster software (HEKA) or an Axon 700B amplifier and Clampex software (AXON). The recording electrode was made through a drawing process using borosilicate glass, with an electrode resistance of 4 to 6 MΩ. Extracellular administration was performed using the ALA-VC-8PG™ system. A single, independently growing cell was selected. After the glass electrode formed a good seal with the cell, the membrane was ruptured to form the whole-cell configuration. The cell membrane potential was clamped at −60 mV and recorded in Gap-free mode. During the test, the extracellular solution was first applied extracellularly for approximately 20 seconds. After the baseline (Iprebaseline) stabilized, the extracellular solution was switched to GABA-ECS. At this point, the current induced by GABA (Igaba) could be detected. After approximately 10 to 20 seconds, when the current stabilized, the extracellular solution was switched to a mixture of the compound and GABA-ECS. […]

For test [3], the target named is T3, human α2-GABAA receptor (α2-GABAAR-HEK293 cells) (Homo sapiens, UniProt P18507+P47869).
T3 construct: expressed in transfected cells
Nature of the test: Whole-cell patch-clamp electrophysiology, positive allosteric modulatory activity on α2-GABAA receptor. In kind it is cell-based. Conditions: read-out: α2-GABAA positive allosteric modulatory activity.
Source text: as §1, §2, §3, §4, §5

For `CCn1cnc2c(-c3ccc(F)c(-c4cc5cn(C6CCN(C)CC6)nc5cc4OC)c3)cnnc21` [Example 99, 7-Ethyl-4-(4-fluoro-3-(6-methoxy-2-(1-methylpiperidin-4-yl)-2H-indazol-5-yl)phenyl)-7H-imidazo[4,5-c]pyridazine], the inhibition constant (Ki) in test [1] is 4.31 nM. For the same molecule, the activation at 0.1 µM is -2% in test [2] and 106% in test [3].

As to `CCn1cnc2c(-c3ccc(F)c(-c4cc5cn(-c6ccccc6)nc5cc4OC)c3)cnnc21` [Example 101, 7-Ethyl-4-(4-fluoro-3-(6-methoxy-2-phenyl-2H-indazol-5-yl)phenyl)-7H-imidazo[4,5-c]pyridazine], the Ki in test [1] was 4.46 nM. For the same molecule, the activation at 0.1 µM in test [2] amounted to 56%; in test [3], 157%.

Take `CCn1cnc2c(-c3ccc(F)c(-c4cc5cn(C(F)F)nc5cc4OC)c3)cnnc21` [Example 111, 4-(3-(2-(Difluoromethyl)-6-methoxy-2H-indazol-5-yl)-4-fluorophenyl)-7-ethyl-7H-imidazo[4,5-c]pyridazine]: the inhibition constant Ki in test [1] was 3.35 nM. The activation at 0.1 µM amounted to 64% in test [2] and 102% in test [3].

With `CCn1cnc2c(-c3ccc(F)c(-c4cc5ccnnc5cc4OC)c3)cnnc21` [Example 112, 6-(5-(7-Ethyl-7H-imidazo[4,5-c]pyridazin-4-yl)-2-fluorophenyl)-7-methoxycinnoline], the Ki in test [1] is 7.62 nM. For the same molecule, the activation at 0.1 µM amounted to 64% in test [2] and 171% in test [3].

Regarding `CCn1cnc2c(-c3ccc(F)c(-c4cc5cn(C6CC6)nc5cc4OC)c3)cnnc21` [Example 114, 4-(3-(2-Cyclopropyl-6-methoxy-2H-indazol-5-yl)-4-fluorophenyl)-7-ethyl-7H-imidazo[4,5-c]pyridazine], the inhibition constant (Ki) in test [1] is 9.97 nM. The activation at 0.1 µM was determined as 68% in test [2] and 107% in test [3].

With `CCn1cnc2c(-c3ccc(F)c(-c4ccc5c(ncn5C5COC5)c4OC)c3)cnnc21` [Example 115, 7-Ethyl-4-(4-fluoro-3-(4-methoxy-1-(oxetan-3-yl)-1H-benzo[d]imidazol-5-yl)phenyl)-7H-imidazo[4,5-c]pyridazine], the Ki in test [1] is 16.4 nM. Besides, the results for the activation at 0.1 µM in test [2] and in test [3] were -25% and 85%, respectively.

For `CCn1cnc2c(-c3ccc(F)c(-c4cc5cn(C6CN(C)C6)nc5cc4OC)c3)cnnc21` [Example 117], in test [1], the Ki was 15.2 nM. The activation at 0.1 µM came to 37% in test [2] and 86% in test [3].

For `CCn1cnc2c(OC)c(-c3cc(-c4cnnc5c4ncn5CC)ccc3F)ccc21` [Example 119, 7-Ethyl-4-(3-(1-ethyl-4-methoxy-1H-benzo[d]imidazol-5-yl)-4-fluorophenyl)-7H-imidazo[4,5-c]pyridazine], the Ki in test [1] is 15.4 nM. For the same molecule, the activation at 0.1 µM in test [2] was -10%; in test [3], 86%.

As for `CCn1cnc2c(-c3ccc(F)c(-c4cc5ccn(C)c(=O)c5cc4OC)c3)cnnc21` [Example 121, 6-(5-(7-Ethyl-7H-imidazo[4,5-c]pyridazin-4-yl)-2-fluorophenyl)-7-methoxy-2-methylisoquinolin-1(2H)-one], in test [1], the Ki is 3.02 nM. For the same molecule, the values for the activation at 0.1 µM in test [2] and in test [3] were -6% and 90%, respectively.

Take `CCn1cnc2c(-c3ccc(F)c(-c4cc5cn(C6CCOC6)nc5cc4OC)c3)cnnc21` (stereo not drawn) [Example 122, 7-Ethyl-4-(4-fluoro-3-(6-methoxy-2-(tetrahydrofuran-3-yl)-2H-indazol-5-yl)phenyl)-7H-imidazo[4,5-c]pyridazine]: the Ki in test [1] is 4.76 nM. In addition, the activation at 0.1 µM was found to be 39% in test [2] and 125% in test [3].

Turning to `CCn1cnc2c(-c3ccc(F)c(-c4cc5ccncc5cc4OC)c3)cnnc21` [Example 123, 6-(5-(7-Ethyl-7H-imidazo[4,5-c]pyridazin-4-yl)-2-fluorophenyl)-7-methoxyisoquinoline], the inhibitory constant (Ki) in test [1] is 7.7 nM. Besides, the activation at 0.1 µM in test [2] is 33%; in test [3] it was 95%.

Consider `CCn1cnc2c(-c3ccc(F)c(-c4ccc5c(ncn5C)c4OC)c3)cnnc21` [Example 126, 7-Ethyl-4-(4-fluoro-3-(4-methoxy-1-methyl-1H-benzo[d]imidazol-5-yl)phenyl)-7H-imidazo[4,5-c]pyridazine], for which, in test [1], the Ki is 5.22 nM. The activation at 0.1 µM was -35% in test [2] and 90% in test [3].

`CCn1cnc2c(-c3ccc(F)c(-c4cc5cn(C6COC6)nc5cc4OC)c3)cnnc21` [Example 129, 7-Ethyl-4-(4-fluoro-3-(6-methoxy-2-(oxetan-3-yl)-2H-indazol-5-yl)phenyl)-7H-imidazo[4,5-c]pyridazine]: the inhibition constant Ki in test [1] was 3.23 nM. Besides, the activation at 0.1 µM stood at 56% in test [2] and 128% in test [3].

For the molecule `CCn1cc2cc(-c3cc(-c4cnnc5c4ncn5CC)ccc3F)c(OC)cc2n1` [Example 130, 7-Ethyl-4-(3-(2-ethyl-6-methoxy-2H-indazol-5-yl)-4-fluorophenyl)-7H-imidazo[4,5-c]pyridazine], the Ki in test [1] was 4.8 nM. Also, the figures for the activation at 0.1 µM in test [2] and in test [3] were 36% and 139%, respectively.

(Values after patent US20260159519A1, “IMIDAZOPYRIDAZINE SUBSTITUTED BENZENE RING DERIVATIVE, PREPARATION METHOD, PHARMACEUTICAL COMPOSITION AND USE” (SHANGHAI SIMR BIOTECHNOLOGY CO., LTD., priority 2022, published 2026).)
